Measured values from ChEMBL document CHEMBL4043136, “Chiral-pool synthesis of 1,2,4-trisubstituted 1,4-diazepanes as novel σ1 receptor ligands” (Bioorg Med Chem, 2017).
The source made the active and inactive calls. The rule behind the calls is not given here.

Assays:
[1] = biological target: Sigma non-opioid intracellular receptor 1 (Cavia porcellus, UniProt Q60492); test: Displacement of [3H]-pentazocine from sigma1 receptor in guinea pig brain membranes after 120 mins by liquid scintillation counting; format: cell membranes, Membrane
[2] = biological target: T1, Sigma intracellular receptor 2 (Rattus norvegicus, UniProt Q5U3Y7); test: Displacement of [3H]-DTG from sigma2 receptor in rat liver membranes after 120 mins by liquid scintillation counting; format: cell membranes, Membrane
T1 sequence (Q5U3Y7 whole entry): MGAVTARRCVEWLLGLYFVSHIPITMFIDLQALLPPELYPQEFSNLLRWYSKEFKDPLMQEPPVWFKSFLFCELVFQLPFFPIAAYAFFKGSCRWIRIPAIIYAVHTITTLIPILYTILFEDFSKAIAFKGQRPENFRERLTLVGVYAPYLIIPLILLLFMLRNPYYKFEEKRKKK

[3] = Displacement of [3H]-(+)-MK 801 from PCP binding site of NMDA receptor in pig brain cortex membranes after 120 mins by liquid scintillation spectrometry; format: cell membranes, Sus scrofa
[4] = biological target: C-8 sterol isomerase ERG2 (Saccharomyces cerevisiae S288c) (UniProt P32352); test: Inhibition of yeast sterol-delta8/7-isomerase at 50 uM
[5] = biological target: C-8 sterol isomerase ERG2 (Saccharomyces cerevisiae S288c) (UniProt P32352); test: Inhibition of yeast sterol-delta8/7-isomerase assessed as accumulation of cholesta-8-en-3beta-ol at 1 uM
[6] = biological target: C-8 sterol isomerase ERG2 (Saccharomyces cerevisiae S288c) (UniProt P32352); test: Inhibition of yeast sterol-delta8/7-isomerase assessed as accumulation of cholesta-8-en-3beta-ol at 50 uM
[7] = biological target: C-8 sterol isomerase ERG2 (Saccharomyces cerevisiae S288c) (UniProt P32352); test: Inhibition of yeast sterol-delta8/7-isomerase assessed as accumulation of cholesta-8,14-dien-3beta-ol at 1 uM
[8] = biological target: C-8 sterol isomerase ERG2 (Saccharomyces cerevisiae S288c) (UniProt P32352); test: Inhibition of yeast sterol-delta8/7-isomerase assessed as accumulation of cholesta-8,14-dien-3beta-ol at 50 uM
[9] = biological target: C-8 sterol isomerase ERG2 (Saccharomyces cerevisiae S288c) (UniProt P32352); test: Inhibition of yeast sterol-delta8/7-isomerase assessed as accumulation of cholesta-7-en-3beta-ol at 1 uM
[10] = biological target: C-8 sterol isomerase ERG2 (Saccharomyces cerevisiae S288c) (UniProt P32352); test: Inhibition of yeast sterol-delta8/7-isomerase assessed as accumulation of cholesta-7-en-3beta-ol at 50 uM
[11] = biological target: C-8 sterol isomerase ERG2 (Saccharomyces cerevisiae S288c) (UniProt P32352); test: Inhibition of yeast sterol-delta8/7-isomerase assessed as accumulation of cholesta-5,7-dien-3beta-ol at 1 uM
[12] = biological target: C-8 sterol isomerase ERG2 (Saccharomyces cerevisiae S288c) (UniProt P32352); test: Inhibition of yeast sterol-delta8/7-isomerase assessed as accumulation of cholesta-5,7-dien-3beta-ol at 50 uM
[13] = biological target: T1, Sigma intracellular receptor 2; test: Displacement of [3H]-DTG from sigma2 receptor in rat liver membranes in presence of (+)-pentazocine; format: cell membranes, Membrane
[14] = biological target: C-8 sterol isomerase ERG2 (Saccharomyces cerevisiae S288c) (UniProt P32352); test: Inhibition of yeast sterol-delta8/7-isomerase at 1 uM
HL-60 = test: Inhibition of cholesteriol biosynthesis in human HL60 cells assessed as incorporation of 2-13C-acetate; format: functional, cell-based
Sus scrofa = organism: Sus scrofa; test: Displacement of [3H]-(+)-MK 801 from PCP binding site of NMDA receptor in pig brain cortex membranes at 1 uM after 120 mins by liquid scintillation spectrometry; format: cell membranes

Chain of Sigma non-opioid intracellular receptor 1 (Q60492 whole entry): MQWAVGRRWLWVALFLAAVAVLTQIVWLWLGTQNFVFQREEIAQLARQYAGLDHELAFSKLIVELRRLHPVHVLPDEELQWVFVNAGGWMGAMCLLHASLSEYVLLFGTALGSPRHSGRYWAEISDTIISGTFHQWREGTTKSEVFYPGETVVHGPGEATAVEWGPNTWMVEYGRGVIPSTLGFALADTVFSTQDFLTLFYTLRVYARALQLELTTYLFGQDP
Chain of C-8 sterol isomerase ERG2 (Saccharomyces cerevisiae S288c) (P32352 whole entry, looked up): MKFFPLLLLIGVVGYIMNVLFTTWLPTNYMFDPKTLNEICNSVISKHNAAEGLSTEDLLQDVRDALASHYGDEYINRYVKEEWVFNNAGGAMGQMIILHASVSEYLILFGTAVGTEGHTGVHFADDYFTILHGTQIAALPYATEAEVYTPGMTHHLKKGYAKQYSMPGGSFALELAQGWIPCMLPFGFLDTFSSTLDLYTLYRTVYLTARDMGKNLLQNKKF

**Q.** With `c1ccc(C[C@H]2CN(Cc3ccccc3)CCCN2Cc2ccccc2)cc1` as the molecule, how does the Ki [1] read?
**A.** 71 nM

**Q.** What about the Ki [2] of the same molecule?
**A.** > 1000 nM

**Q.** What about the IC50 [3] of the same molecule?
**A.** > 1000 nM

**Q.** What about the inhibition [4] of the same molecule?
**A.** Active

**Q.** What about the inhibition [5] of the same molecule?
**A.** Active

**Q.** What about the inhibition [6] of the same molecule?
**A.** inactive

**Q.** And the inhibition [7]?
**A.** Active

**Q.** What about the inhibition [8] of the same molecule?
**A.** Active

**Q.** And the inhibition [9]?
**A.** Active

**Q.** And the inhibition [10]?
**A.** Active

**Q.** What about the inhibition [11] of the same molecule?
**A.** Active

**Q.** What about the inhibition [12] of the same molecule?
**A.** Active

**Q.** With `c1ccc(CCN2CCCN(Cc3ccccc3)[C@@H](Cc3ccccc3)C2)cc1` as the molecule, how does the Ki [1] read?
**A.** 40 nM

**Q.** And the Ki [2]?
**A.** 426 nM

**Q.** And the IC50 [3]?
**A.** > 1000 nM

**Q.** What about the inhibition [4] of the same molecule?
**A.** Active

**Q.** What about the inhibition [5] of the same molecule?
**A.** Active

**Q.** And the inhibition [6]?
**A.** Active

**Q.** And the inhibition [7]?
**A.** Active

**Q.** And the inhibition [8]?
**A.** Active

**Q.** And the inhibition [9]?
**A.** Active

**Q.** And the inhibition [10]?
**A.** Active

**Q.** What about the inhibition [11] of the same molecule?
**A.** Active

**Q.** And the inhibition [12]?
**A.** Active

**Q.** What does the source list for `CCCCN1CCCN(Cc2ccccc2)[C@H](Cc2ccccc2)C1`?
**A.** Ki [1]: 3.9 nM; Ki [2]: 169 nM; IC50 [3]: > 1000 nM; inhibition [4]: Active; inhibition [5]: Active; inhibition [6]: inactive; inhibition [7]: Active; inhibition [8]: Active; inhibition [9]: Active; inhibition [10]: Active; inhibition [11]: Active; inhibition [12]: Active

**Q.** For `c1ccc2c(c1)CCCC2CCCCN1CCN(C2CCCCC2)CC1` (stereo unspecified), which Ki [13] is on record?
**A.** 14.6 nM

**Q.** For `CCCCN1CCCN(Cc2ccccc2)[C@@H](Cc2ccccc2)C1`, which Ki [1] is on record?
**A.** 3.7 nM

**Q.** And the Ki [2]?
**A.** 238 nM

**Q.** What about the IC50 [3] of the same molecule?
**A.** > 1000 nM

**Q.** What about the inhibition [14] of the same molecule?
**A.** Active

**Q.** What about the IC50 (HL-60) of the same molecule?
**A.** 742 nM

**Q.** What about the inhibition [5] of the same molecule?
**A.** inactive

**Q.** What about the inhibition [6] of the same molecule?
**A.** inactive

**Q.** What about the inhibition [7] of the same molecule?
**A.** Active

**Q.** What about the inhibition [8] of the same molecule?
**A.** Active

**Q.** And the inhibition [9]?
**A.** Active

**Q.** What about the inhibition [10] of the same molecule?
**A.** Active

**Q.** And the inhibition [11]?
**A.** Active

**Q.** What about the inhibition [12] of the same molecule?
**A.** Active

**Q.** With `COc1cccc2c1CCCC2CCCN1CCN(C2CCCCC2)CC1` (stereo unspecified) as the molecule, how does the Ki [13] read?
**A.** 0.34 nM

**Q.** With `OC(CN1CCCN(Cc2ccccc2)[C@H](Cc2ccccc2)C1)c1ccccc1` (stereo partly specified) as the molecule, how does the Ki [1] read?
**A.** 51 nM

**Q.** And the Ki [2]?
**A.** > 1000 nM

**Q.** What about the IC50 [3] of the same molecule?
**A.** 1000 nM

**Q.** And the inhibition (Sus scrofa)?
**A.** 50%

**Q.** For `OCC(c1ccccc1)N1CCCN(Cc2ccccc2)[C@H](Cc2ccccc2)C1` (stereo partly specified), which Ki [1] is on record?
**A.** 27 nM

**Q.** And the Ki [2]?
**A.** > 1000 nM

**Q.** What about the IC50 [3] of the same molecule?
**A.** 1000 nM

**Q.** What about the inhibition (Sus scrofa) of the same molecule?
**A.** 50%

**Q.** Which Ki [1] does the source give for `c1ccc(C[C@@H]2CN(Cc3ccccc3)CCCN2Cc2ccccc2)cc1` here?
**A.** 80 nM

**Q.** What about the Ki [2] of the same molecule?
**A.** 514 nM

**Q.** What about the IC50 [3] of the same molecule?
**A.** > 1000 nM

**Q.** And the inhibition [4]?
**A.** Active

**Q.** And the inhibition [5]?
**A.** Active

**Q.** And the inhibition [6]?
**A.** Active

**Q.** What about the inhibition [7] of the same molecule?
**A.** Active

**Q.** And the inhibition [8]?
**A.** Active

**Q.** And the inhibition [9]?
**A.** Active

**Q.** What about the inhibition [10] of the same molecule?
**A.** Active

**Q.** What about the inhibition [11] of the same molecule?
**A.** Active

**Q.** And the inhibition [12]?
**A.** Active
